Measurements taken from PubChem BioAssay AID2060351 (Molecular Pharmacology Branch, DTP, NCI, 2025).

Tested on: 521955-158-R7-J2-PDC spheroids, viability % test/control
Assay: Anticancer human tumor 521955-158-R7-J2-PDC patient-derived pancreatic carcinoma cell line growth inhibition [TAK]
Details: spheroids with HUVEC and MSC; for IC50: curve of first compound; for viability, T/C: stronger effect = lower value
Method in brief: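 Drug combinations, each paired with TAK-243 or ipatasertib, were tested on multi-cell spheroids of 60% malignant cells, 25% HUVEC and 15% hMSC. Top concentrations were at or near the clinical Cmax (10 microM if undetermined), decreasing by half-log; viability is given as % test/control.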

[1] = second compound 0.3 µM, first compound 0.0316 µM
[2] = second compound 0.3 µM, first compound 0.1 µM
[3] = second compound 0.3 µM, first compound 0.316 µM
[4] = second compound 0.3 µM, first compound 1 µM
[5] = second compound 0.3 µM, first compound 3.16 µM
[6] = second compound 0.3 µM, first compound 10 µM
[7] = second compound 0.949 µM, first compound 0.0316 µM
[8] = second compound 0.949 µM, first compound 0.1 µM
[9] = second compound 0.949 µM, first compound 0.316 µM
[10] = second compound 0.949 µM, first compound 1 µM
[11] = second compound 0.949 µM, first compound 3.16 µM
[12] = second compound 0.949 µM, first compound 10 µM
[13] = second compound 3 µM, first compound 0.0316 µM
[14] = second compound 3 µM, first compound 0.1 µM
[15] = second compound 3 µM, first compound 0.316 µM
[16] = second compound 3 µM, first compound 1 µM
[17] = second compound 3 µM, first compound 3.16 µM
[18] = second compound 3 µM, first compound 10 µM
[19] = second compound 9.49 µM, first compound 0.0316 µM
[20] = second compound 9.49 µM, first compound 0.1 µM
[21] = second compound 9.49 µM, first compound 0.316 µM
[22] = second compound 9.49 µM, first compound 1 µM
[23] = second compound 9.49 µM, first compound 3.16 µM
[24] = second compound 9.49 µM, first compound 10 µM
[25] = second compound 30 µM, first compound 0.0316 µM
[26] = second compound 30 µM, first compound 0.1 µM
[27] = second compound 30 µM, first compound 0.316 µM
[28] = second compound 30 µM, first compound 1 µM
[29] = second compound 30 µM, first compound 3.16 µM
[30] = second compound 30 µM, first compound 10 µM
[31] = second compound 0.3 µM, first compound 0.000316 µM
[32] = second compound 0.3 µM, first compound 0.001 µM
[33] = second compound 0.3 µM, first compound 0.00316 µM
[34] = second compound 0.3 µM, first compound 0.01 µM
[35] = second compound 0.949 µM, first compound 0.000316 µM
[36] = second compound 0.949 µM, first compound 0.001 µM
[37] = second compound 0.949 µM, first compound 0.00316 µM
[38] = second compound 0.949 µM, first compound 0.01 µM
[39] = second compound 3 µM, first compound 0.000316 µM
[40] = second compound 3 µM, first compound 0.001 µM
[41] = second compound 3 µM, first compound 0.00316 µM
[42] = second compound 3 µM, first compound 0.01 µM
[43] = second compound 9.49 µM, first compound 0.000316 µM
[44] = second compound 9.49 µM, first compound 0.001 µM
[45] = second compound 9.49 µM, first compound 0.00316 µM
[46] = second compound 9.49 µM, first compound 0.01 µM
[47] = second compound 30 µM, first compound 0.000316 µM
[48] = second compound 30 µM, first compound 0.001 µM
[49] = second compound 30 µM, first compound 0.00316 µM
[50] = second compound 30 µM, first compound 0.01 µM
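Also: spheroids exposed to compound for 7 days before readout.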
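For viability, T/C in this document: 100% = DMSO vehicle control wells.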

Compound `CC(C)(C)c1nc(-c2cccc(NS(=O)(=O)c3c(F)cccc3F)c2F)c(-c2ccnc(N)n2)s1` + CC(C)NCC(C(=O)N1CCN(c2ncnc3c2C(C)CC3O)CC1)c1ccc(Cl)cc1 has an IC50 (second compound 0.3 µM) greater than 10000 nM, an IC50 (second compound 0.949 µM) greater than 10000 nM and an IC50 (second compound 3 µM) greater than 10000 nM. The IC50 (second compound 9.49 µM) was greater than 10000 nM, the IC50 (second compound 30 µM) was greater than 10000 nM and the viability, T/C [1] was 111%. The viability, T/C [2] was 94.3%, the viability, T/C [3] was 106% and the viability, T/C [4] was 131%. For the same compound, the viability, T/C [5] was 101%, the viability, T/C [6] was 74.2% and the viability, T/C [7] was 89.3%. The viability, T/C [8] was 102%, the viability, T/C [9] was 90.4% and the viability, T/C [10] was 103%. It also gave a viability, T/C [11] of 92.7%, a viability, T/C [12] of 60.3% and a viability, T/C [13] of 95%. It also gave a viability, T/C [14] of 115%, a viability, T/C [15] of 108% and a viability, T/C [16] of 130%. For the same compound, the viability, T/C [17] was 101%, the viability, T/C [18] was 71.5% and the viability, T/C [19] was 127%. It also gave a viability, T/C [20] of 115%, a viability, T/C [21] of 117% and a viability, T/C [22] of 119%. The viability, T/C [23] was 105%, the viability, T/C [24] was 83.7% and the viability, T/C [25] was 111%. The viability, T/C [26] was 130%, the viability, T/C [27] was 138% and the viability, T/C [28] was 136%. The viability, T/C [29] was 130% and the viability, T/C [30] was 97.2%.
`CC(C)CC(NC(=O)CNC(=O)c1cc(Cl)ccc1Cl)B1OC(=O)CC(CC(=O)O)(C(=O)O)O1` (stereo not given) + CC(C)NCC(C(=O)N1CCN(c2ncnc3c2C(C)CC3O)CC1)c1ccc(Cl)cc1 gave an IC50 (second compound 0.3 µM) of 38.8 nM, an IC50 (second compound 0.949 µM) of 47.4 nM and an IC50 (second compound 3 µM) of 42 nM. It also gave an IC50 (second compound 9.49 µM) of 35 nM, an IC50 (second compound 30 µM) of 33.3 nM and a viability, T/C [31] of 103%. The viability, T/C [32] was 71.9%, the viability, T/C [33] was 96.8% and the viability, T/C [34] was 104%. The viability, T/C [1] was 60.1%, the viability, T/C [2] was 3.16% and the viability, T/C [35] was 119%. The viability, T/C [36] was 92.2%, the viability, T/C [37] was 87.6% and the viability, T/C [38] was 103%. The viability, T/C [7] was 74.7%, the viability, T/C [8] was 4.69% and the viability, T/C [39] was 85.6%. It also gave a viability, T/C [40] of 90.8%, a viability, T/C [41] of 109% and a viability, T/C [42] of 85.9%. For the same compound, the viability, T/C [13] was 64.8%, the viability, T/C [14] was 5.79% and the viability, T/C [43] was 116%. It also gave a viability, T/C [44] of 98.8%, a viability, T/C [45] of 82.7% and a viability, T/C [46] of 86.4%. The viability, T/C [19] was 58.1%, the viability, T/C [20] was 4.1% and the viability, T/C [47] was 95.1%. The viability, T/C [48] was 105%, the viability, T/C [49] was 88.7% and the viability, T/C [50] was 80.9%. It also gave a viability, T/C [25] of 52.4% and a viability, T/C [26] of 2.42%.
For `CC(C)n1nc(-c2ccc3oc(N)nc3c2)c2c(N)ncnc21` + CC(C)NCC(C(=O)N1CCN(c2ncnc3c2C(C)CC3O)CC1)c1ccc(Cl)cc1, the IC50 (second compound 0.3 µM) was greater than 100 nM, the IC50 (second compound 0.949 µM) was greater than 100 nM and the IC50 (second compound 3 µM) was greater than 100 nM. It also gave an IC50 (second compound 9.49 µM) greater than 100 nM, an IC50 (second compound 30 µM) greater than 100 nM and a viability, T/C [31] of 112%. For the same compound, the viability, T/C [32] was 74.7%, the viability, T/C [33] was 78.8% and the viability, T/C [34] was 134%. For the same compound, the viability, T/C [1] was 98.1%, the viability, T/C [2] was 69% and the viability, T/C [35] was 118%. It also gave a viability, T/C [36] of 84.9%, a viability, T/C [37] of 100% and a viability, T/C [38] of 75.3%. For the same compound, the viability, T/C [7] was 99%, the viability, T/C [8] was 100% and the viability, T/C [39] was 91.3%. For the same compound, the viability, T/C [40] was 105%, the viability, T/C [41] was 86.8% and the viability, T/C [42] was 94.3%. For the same compound, the viability, T/C [13] was 132%, the viability, T/C [14] was 120% and the viability, T/C [43] was 89.9%. It also gave a viability, T/C [44] of 98.3%, a viability, T/C [45] of 83.9% and a viability, T/C [46] of 113%. The viability, T/C [19] was 120%, the viability, T/C [20] was 106% and the viability, T/C [47] was 102%. For the same compound, the viability, T/C [48] was 115%, the viability, T/C [49] was 103% and the viability, T/C [50] was 127%. It also gave a viability, T/C [25] of 117% and a viability, T/C [26] of 80%.
`CCCS(=O)(=O)Nc1ccc(F)c(C(=O)c2c[nH]c3ncc(-c4ccc(Cl)cc4)cc23)c1F` + CC(C)NCC(C(=O)N1CCN(c2ncnc3c2C(C)CC3O)CC1)c1ccc(Cl)cc1 gave an IC50 (second compound 0.3 µM) greater than 100000 nM, an IC50 (second compound 0.949 µM) greater than 100000 nM and an IC50 (second compound 3 µM) greater than 100000 nM. It also gave an IC50 (second compound 9.49 µM) of 21800 nM, an IC50 (second compound 30 µM) of 6430 nM and a viability, T/C [3] of 85.9%. The viability, T/C [4] was 83.5%, the viability, T/C [5] was 85.8% and the viability, T/C [6] was 108%. It also gave a viability, T/C (second compound 0.3 µM, first compound 31.6 µM) of 69.5%, a viability, T/C (second compound 0.3 µM, first compound 100 µM) of 81.8% and a viability, T/C [9] of 84.4%. It also gave a viability, T/C [10] of 94.1%, a viability, T/C [11] of 90.9% and a viability, T/C [12] of 107%. For the same compound, the viability, T/C (second compound 0.949 µM, first compound 31.6 µM) was 53.6%, the viability, T/C (second compound 0.949 µM, first compound 100 µM) was 87% and the viability, T/C [15] was 82.9%. The viability, T/C [16] was 89.1%, the viability, T/C [17] was 105% and the viability, T/C [18] was 88.5%. For the same compound, the viability, T/C (second compound 3 µM, first compound 31.6 µM) was 54%, the viability, T/C (second compound 3 µM, first compound 100 µM) was 50.5% and the viability, T/C [21] was 85.4%. It also gave a viability, T/C [22] of 107%, a viability, T/C [23] of 99.8% and a viability, T/C [24] of 73.7%. The viability, T/C (second compound 9.49 µM, first compound 31.6 µM) was 39.9%, the viability, T/C (second compound 9.49 µM, first compound 100 µM) was 32.4% and the viability, T/C [27] was 107%. The viability, T/C [28] was 119%, the viability, T/C [29] was 127% and the viability, T/C [30] was 5.6%. It also gave a viability, T/C (second compound 30 µM, first compound 31.6 µM) of 5.46% and a viability, T/C (second compound 30 µM, first compound 100 µM) of 13.1%.
